Experimental data published in patent publication EP2468741A1, “Novel quercetin derivatives, their preparation, pharmaceutical compositions containing them and their use” (Bel/Novamann International s.r.o., priority 2010, dated 2012).

Assay: Free radical inhibiting activity in vitro (DPPH)
Format: biochemical
Conditions: 50 µM DPPH in ethanol, 30 minutes, room temperature, decrease in OD, solvent control subtracted
Procedure: A 50 µM solution of 1,1-diphenyl-2-picrylhydrazyl (DPPH) in ethanol is added for 30 minutes at room temperature to a tested sample. The drop in absorbance is then measured and the results are given as the percentage decrease in OD caused by the test compound relative to the solvent used. The tested products are dissolved in ethanol (except product according to Example 7 when DMSO was used); the results (solvent control subtracted) are given as % free radical inhibiting activity as described in table 2.

Row | Compound | Free radical inhibiting activity (dissolved in DMSO) | Free radical inhibiting activity (dissolved in ethanol)
1 | 1,3-bis-butyryloxy-11a-hydroxy-9-(3,5,7-tributyryloxy-4H-1-benzopyran-4-on-2-yl)-5a-(3,4-bisbutyryloxyphenyl)-5,6,11-hexahydro-5,6,11-trioxanaphtacene-12-one [Example 7] | 95% | 
2 | CC(=O)Oc1ccccc1C(=O)Oc1cc(O)c2c(=O)c(OC(=O)c3ccccc3OC(C)=O)c(-c3ccc(OC(=O)c4ccccc4OC(C)=O)c(OC(=O)c4ccccc4OC(C)=O)c3)oc2c1 [Example 3, 3,7-bis-(2-acetylsalicyloyloxy)-2-(3,4-bis-(2-acetylsalicyloyloxy)phenyl)-5-hydroxy-chromen-4-one] |  | 82%
3 | COc1cc(C=CC(=O)Oc2cc(O)c3c(=O)c(OC(=O)C=Cc4ccc(OCC=C(C)C)c(OC)c4)c(-c4ccc(OC(=O)C=Cc5ccc(OCC=C(C)C)c(OC)c5)c(OC(=O)C=Cc5ccc(OCC=C(C)C)c(OC)c5)c4)oc3c2)ccc1OCC=C(C)C [Example 8, 3-(O-prenylferuloyloxy)-2-(3,4-bis-(O-prenylferuloyloxy)phenyl)-7-(O-prenyl-feruloyloxy)-5-hydroxy-chromen-4-one] |  | 75%
4 | O=c1c(O)c(-c2ccc(O)c(O)c2)oc2cc(O)cc(O)c12 [Quercetin] |  | 62%
